PubChem BioAssay (NCI)
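A five-concentration, 48-hour dose response in 96-well plates underlies each endpoint, interpolated linearly between surrounding concentrations. The concentration for full growth arrest is given as TGI.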

Assays:
Test in all cases: inhibition of tumour cell growth, NCI panel, 48 h
SNB-19 CNS = system: SNB-19 CNS
SK-MEL-5 melanoma = system: SK-MEL-5 melanoma
KM12 colon = system: KM12 colon
A549 NSCLC = system: A549 NSCLC
M14 melanoma = system: M14 melanoma
NCI-H522 lung = system: NCI-H522 lung
PC-3 prostate = system: PC-3 prostate
SF-295 CNS = system: SF-295 CNS
U251 CNS = system: U251 CNS
SNB-75 CNS = system: SNB-75 CNS
NCI/ADR-RES ovarian = system: NCI/ADR-RES ovarian
HCT-15 colon = system: HCT-15 colon
COLO 205 colon = system: COLO 205 colon
UO-31 renal = system: UO-31 renal
SF-268 CNS = system: SF-268 CNS
CAKI-1 renal = system: CAKI-1 renal
EKVX NSCLC = system: EKVX NSCLC
NCI-H460 lung = system: NCI-H460 lung
OVCAR-4 ovarian = system: OVCAR-4 ovarian
HOP-62 NSCLC = system: HOP-62 NSCLC
SW-620 colon = system: SW-620 colon
NCI-H23 lung = system: NCI-H23 lung
MDA-N = system: MDA-N
HCC-2998 colon = system: HCC-2998 colon
A498 renal = system: A498 renal
UACC-257 melanoma = system: UACC-257 melanoma
SK-MEL-2 melanoma = system: SK-MEL-2 melanoma
HL-60(TB) leukemia = system: HL-60(TB) leukemia
CCRF-CEM leukemia = system: CCRF-CEM leukemia
MALME-3M melanoma = system: MALME-3M melanoma
HOP-92 NSCLC = system: HOP-92 NSCLC
NCI-H226 lung = system: NCI-H226 lung
HCT-116 colon = system: HCT-116 colon
ACHN renal = system: ACHN renal
SR leukemia = system: SR leukemia
SK-MEL-28 melanoma = system: SK-MEL-28 melanoma
MDA-MB-231 breast = system: MDA-MB-231 breast
OVCAR-5 ovarian = system: OVCAR-5 ovarian
DU-145 prostate = system: DU-145 prostate
MDA-MB-435 = system: MDA-MB-435
MCF7 breast = system: MCF7 breast
RXF 393 renal = system: RXF 393 renal
T-47D breast = system: T-47D breast
LOX IMVI melanoma = system: LOX IMVI melanoma
OVCAR-8 ovarian = system: OVCAR-8 ovarian
HS 578T breast = system: HS 578T breast
SN12C renal = system: SN12C renal
SF-539 CNS = system: SF-539 CNS
TK-10 renal = system: TK-10 renal
786-0 renal = system: 786-0 renal
BT-549 breast = system: BT-549 breast
IGROV1 ovarian = system: IGROV1 ovarian
MOLT-4 leukemia = system: MOLT-4 leukemia
HT29 colon = system: HT29 colon
OVCAR-3 ovarian = system: OVCAR-3 ovarian
UACC-62 melanoma = system: UACC-62 melanoma
K-562 leukemia = system: K-562 leukemia
SK-OV-3 ovarian = system: SK-OV-3 ovarian

Question: For `O=c1c(-c2ccc(Cl)cc2)nnc2n(Cc3ccccc3)c3ccccc3n12`, which TGI (SNB-19 CNS) is on record?
Answer: 72 µM

Question: What about the TGI (SK-MEL-5 melanoma) of the same compound?
Answer: > 100 µM

Question: And the TGI (KM12 colon)?
Answer: > 100 µM

Question: And the TGI (A549 NSCLC)?
Answer: > 100 µM

Question: And the TGI (M14 melanoma)?
Answer: > 100 µM

Question: What about the TGI (NCI-H522 lung) of the same compound?
Answer: > 100 µM

Question: What about the TGI (PC-3 prostate) of the same compound?
Answer: > 100 µM

Question: What about the TGI (SF-295 CNS) of the same compound?
Answer: 49.4 µM

Question: What about the TGI (U251 CNS) of the same compound?
Answer: 72.7 µM

Question: And the TGI (SNB-75 CNS)?
Answer: 44.9 µM

Question: What about the TGI (NCI/ADR-RES ovarian) of the same compound?
Answer: > 100 µM

Question: What about the TGI (HCT-15 colon) of the same compound?
Answer: > 100 µM

Question: And the TGI (COLO 205 colon)?
Answer: > 100 µM

Question: And the TGI (UO-31 renal)?
Answer: > 100 µM

Question: And the TGI (SF-268 CNS)?
Answer: > 100 µM

Question: And the TGI (CAKI-1 renal)?
Answer: 59.8 µM

Question: And the TGI (EKVX NSCLC)?
Answer: > 100 µM

Question: And the TGI (NCI-H460 lung)?
Answer: > 100 µM

Question: What about the TGI (OVCAR-4 ovarian) of the same compound?
Answer: 30.7 µM

Question: And the TGI (HOP-62 NSCLC)?
Answer: 44.9 µM

Question: What about the TGI (SW-620 colon) of the same compound?
Answer: > 100 µM

Question: What about the TGI (NCI-H23 lung) of the same compound?
Answer: > 100 µM

Question: What about the TGI (MDA-N) of the same compound?
Answer: > 100 µM

Question: What about the TGI (HCC-2998 colon) of the same compound?
Answer: > 100 µM

Question: What about the TGI (A498 renal) of the same compound?
Answer: 69.5 µM

Question: What about the TGI (UACC-257 melanoma) of the same compound?
Answer: > 100 µM

Question: And the TGI (SK-MEL-2 melanoma)?
Answer: > 100 µM

Question: And the TGI (HL-60(TB) leukemia)?
Answer: > 100 µM

Question: What about the TGI (CCRF-CEM leukemia) of the same compound?
Answer: > 100 µM

Question: And the TGI (MALME-3M melanoma)?
Answer: > 100 µM

Question: And the TGI (HOP-92 NSCLC)?
Answer: 42.6 µM

Question: What about the TGI (NCI-H226 lung) of the same compound?
Answer: > 100 µM

Question: And the TGI (HCT-116 colon)?
Answer: > 100 µM

Question: And the TGI (ACHN renal)?
Answer: > 100 µM

Question: And the TGI (SR leukemia)?
Answer: > 100 µM

Question: What about the TGI (SK-MEL-28 melanoma) of the same compound?
Answer: > 100 µM

Question: And the TGI (MDA-MB-231 breast)?
Answer: 67.8 µM

Question: What about the TGI (OVCAR-5 ovarian) of the same compound?
Answer: > 100 µM

Question: What about the TGI (DU-145 prostate) of the same compound?
Answer: > 100 µM

Question: And the TGI (MDA-MB-435)?
Answer: > 100 µM

Question: And the TGI (MCF7 breast)?
Answer: > 100 µM

Question: What about the TGI (RXF 393 renal) of the same compound?
Answer: 40.2 µM

Question: And the TGI (T-47D breast)?
Answer: > 100 µM

Question: What about the TGI (LOX IMVI melanoma) of the same compound?
Answer: > 100 µM

Question: And the TGI (OVCAR-8 ovarian)?
Answer: > 100 µM

Question: What about the TGI (HS 578T breast) of the same compound?
Answer: > 100 µM

Question: What about the TGI (SN12C renal) of the same compound?
Answer: > 100 µM

Question: And the TGI (SF-539 CNS)?
Answer: 37.9 µM

Question: And the TGI (TK-10 renal)?
Answer: 61.8 µM

Question: What about the TGI (786-0 renal) of the same compound?
Answer: 42.8 µM

Question: What about the TGI (BT-549 breast) of the same compound?
Answer: 57.2 µM

Question: What about the TGI (IGROV1 ovarian) of the same compound?
Answer: > 100 µM

Question: And the TGI (MOLT-4 leukemia)?
Answer: > 100 µM

Question: What about the TGI (HT29 colon) of the same compound?
Answer: > 100 µM

Question: For `O=[N+]([O-])c1ccc(NC(=S)N=Nc2c(O)[nH]c3ccc(Br)cc23)cc1`, which TGI (SK-MEL-5 melanoma) is on record?
Answer: 33.4 µM

Question: What about the TGI (KM12 colon) of the same compound?
Answer: 22 µM

Question: And the TGI (NCI-H522 lung)?
Answer: 27.5 µM

Question: And the TGI (PC-3 prostate)?
Answer: 20.7 µM

Question: And the TGI (SF-295 CNS)?
Answer: 22 µM

Question: And the TGI (U251 CNS)?
Answer: 21.9 µM

Question: What about the TGI (SNB-75 CNS) of the same compound?
Answer: 30.7 µM

Question: What about the TGI (NCI/ADR-RES ovarian) of the same compound?
Answer: 6.13 µM

Question: And the TGI (HCT-15 colon)?
Answer: 12.9 µM

Question: What about the TGI (COLO 205 colon) of the same compound?
Answer: 56.5 µM

Question: And the TGI (SF-268 CNS)?
Answer: 26.1 µM

Question: What about the TGI (CAKI-1 renal) of the same compound?
Answer: 20.6 µM

Question: And the TGI (NCI-H460 lung)?
Answer: 21.2 µM

Question: And the TGI (OVCAR-4 ovarian)?
Answer: 21.1 µM

Question: What about the TGI (HOP-62 NSCLC) of the same compound?
Answer: 30.4 µM

Question: What about the TGI (SW-620 colon) of the same compound?
Answer: 30 µM

Question: What about the TGI (NCI-H23 lung) of the same compound?
Answer: 12.9 µM

Question: And the TGI (MDA-N)?
Answer: 23.5 µM

Question: And the TGI (A498 renal)?
Answer: 17.2 µM

Question: And the TGI (UACC-257 melanoma)?
Answer: 29.8 µM

Question: What about the TGI (SK-MEL-2 melanoma) of the same compound?
Answer: 28.4 µM

Question: And the TGI (HL-60(TB) leukemia)?
Answer: 7.09 µM

Question: What about the TGI (MALME-3M melanoma) of the same compound?
Answer: 20.2 µM

Question: What about the TGI (HOP-92 NSCLC) of the same compound?
Answer: 22.7 µM

Question: What about the TGI (NCI-H226 lung) of the same compound?
Answer: 38.1 µM

Question: And the TGI (HCT-116 colon)?
Answer: 18 µM

Question: What about the TGI (ACHN renal) of the same compound?
Answer: 18 µM

Question: What about the TGI (SR leukemia) of the same compound?
Answer: 42.7 µM

Question: And the TGI (SK-MEL-28 melanoma)?
Answer: 33.5 µM

Question: What about the TGI (MDA-MB-231 breast) of the same compound?
Answer: 32 µM

Question: What about the TGI (OVCAR-3 ovarian) of the same compound?
Answer: 21.8 µM

Question: And the TGI (OVCAR-5 ovarian)?
Answer: 28.3 µM

Question: What about the TGI (DU-145 prostate) of the same compound?
Answer: 24.2 µM

Question: And the TGI (MDA-MB-435)?
Answer: 25.4 µM

Question: And the TGI (MCF7 breast)?
Answer: 22 µM

Question: And the TGI (RXF 393 renal)?
Answer: 26.5 µM

Question: What about the TGI (T-47D breast) of the same compound?
Answer: 37.8 µM

Question: What about the TGI (UACC-62 melanoma) of the same compound?
Answer: 18.3 µM

Question: And the TGI (LOX IMVI melanoma)?
Answer: 22.4 µM

Question: What about the TGI (K-562 leukemia) of the same compound?
Answer: > 100 µM

Question: And the TGI (OVCAR-8 ovarian)?
Answer: 20 µM

Question: And the TGI (HS 578T breast)?
Answer: 39.6 µM

Question: And the TGI (SN12C renal)?
Answer: 23.8 µM

Question: What about the TGI (SF-539 CNS) of the same compound?
Answer: 82.9 µM

Question: What about the TGI (TK-10 renal) of the same compound?
Answer: 28.5 µM

Question: And the TGI (SK-OV-3 ovarian)?
Answer: 28.9 µM

Question: And the TGI (786-0 renal)?
Answer: 21.8 µM

Question: And the TGI (BT-549 breast)?
Answer: 11.1 µM

Question: What about the TGI (IGROV1 ovarian) of the same compound?
Answer: 18.3 µM

Question: And the TGI (MOLT-4 leukemia)?
Answer: > 100 µM

Question: What about the TGI (HT29 colon) of the same compound?
Answer: 24.9 µM
